The assay concerns monocistronic NK5.1 HCV replicon in Huh7 cells. The experiment in a line: HCV replicon assay, monocistronic replicon cell line. The following applies: Hepatitis C virus, Huh-7; monocistronic NK5.1 HCV replicon in Huh7 cells; median value; read-out: Mono EC50 Median. Type of assay: cell-based, hepatitis C virus. A digest of the protocol: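 EC50 derives from the HCV RNA/GAPDH RNA ratio by one-step TaqMan RT-PCR, relative to DMSO-only wells. Compounds (six half-log concentrations, 0.6% DMSO) were incubated 3 days at 37 °C with NK5.1 monocistronic replicon Huh7 cells plated a day earlier.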

For `COc1ccc(O)c(-c2nc(-c3ccc(NC(C)=O)cn3)no2)c1` [Compound 262, N-{6-[5-(2-Hydroxy-5-methoxy-phenyl)-[1,2,4]oxadiazol-3-yl]-pyridin-3-yl}-acetamide], the EC50 stood at 19.2 µM. Next, `CC(=O)Nc1ccc(-c2noc(-c3cc(Br)ccc3O)n2)nc1` [Compound 263, N-{6-[5-(5-Bromo-2-hydroxy-phenyl)-[1,2,4]oxadiazol-3-yl]-pyridin-3-yl}-acetamide]: above 19 µM; `CC(=O)Nc1ccc(-c2noc(-c3cc(C)ccc3O)n2)nc1` [Compound 264, N-{6-[5-(2-Hydroxy-5-methyl-phenyl)-[1,2,4]oxadiazol-3-yl]-pyridin-3-yl}-acetamide]: above 19 µM; `COc1ccc(-c2nc(-c3ccc(C(F)(F)F)cn3)no2)c(O)c1OC` [Compound 265, 2,3-Dimethoxy-6-[3-(5-trifluoromethyl-pyridin-2-yl)-[1,2,4]oxadiazol-5-yl]-phenol]: 28.5 µM. Next, `Cc1cccnc1-c1noc(-c2cc(O)ccc2OCc2ccccc2)n1` [Compound 267, 4-Benzyloxy-3-[3-(3-methyl-pyridin-2-yl)-[1,2,4]oxadiazol-5-yl]-phenol]: 15.9 µM; `CCOc1cccc(-c2nc(-c3ncccc3C)no2)c1O` [Compound 268, 2-Ethoxy-6-[3-(3-methyl-pyridin-2-yl)-[1,2,4]oxadiazol-5-yl]-phenol]: 28.7 µM; `CCOc1cccc(-c2nc(-c3ccc(C(F)(F)F)cn3)no2)c1O` [Compound 269, 2-Ethoxy-6-[3-(5-trifluoromethyl-pyridin-2-yl)-[1,2,4]oxadiazol-5-yl]-phenol]: 35.9 µM. As to `Cc1cccnc1-c1noc(-c2cc(N)ccc2O)n1` [Compound 270, 4-Amino-2-[3-(3-methyl-pyridin-2-yl)-[1,2,4]oxadiazol-5-yl]-phenol], the EC50 is 27.7 µM.

In the case of `CCOc1ccc(O)c(-c2nc(-c3ncccc3C)no2)c1` [Compound 271, 4-Ethoxy-2-[3-(3-methyl-pyridin-2-yl)-[1,2,4]oxadiazol-5-yl]-phenol], the EC50 is 0.61 µM. Next, `CCCOc1ccc(O)c(-c2nc(-c3ncccc3C)no2)c1` [Compound 272, 2-[3-(3-Methyl-pyridin-2-yl)-[1,2,4]oxadiazol-5-yl]-4-propoxy-phenol]: above 32 µM; `Cc1cccnc1-c1noc(-c2cc(OCCc3ccccc3)ccc2O)n1` [Compound 273, 2-[3-(3-Methyl-pyridin-2-yl)-[1,2,4]oxadiazol-5-yl]-4-phenethyloxy-phenol]: above 19 µM. Next, `Cc1cccnc1-c1noc(-c2ccc(OCc3ccccc3)cc2O)n1` [Compound 274, 5-Benzyloxy-2-[3-(3-methyl-pyridin-2-yl)-[1,2,4]oxadiazol-5-yl]-phenol]: 1.8 µM; `CC(=O)Nc1ccc(O)c(-c2nc(-c3ncccc3C)no2)c1` [Compound 275, N-{4-Hydroxy-3-[3-(3-methyl-pyridin-2-yl)-[1,2,4]oxadiazol-5-yl]-phenyl}-acetamide]: 18 µM; `Cc1cccnc1-c1noc(-c2ccc(NC(=O)OC(C)(C)C)cc2O)n1` [Compound 276, {3-Hydroxy-4-[3-(3-methyl-pyridin-2-yl)-[1,2,4]oxadiazol-5-yl]-phenyl}-carbamic acid tert-butyl ester]: 0.7 µM. Next, `Cc1cccnc1-c1noc(-c2ccc(N)cc2O)n1` [Compound 277, 5-Amino-2-[3-(3-methyl-pyridin-2-yl)-[1,2,4]oxadiazol-5-yl]-phenol]: 6 µM; `Cc1cccnc1-c1noc(-c2cc(Cl)cc(Cl)c2O)n1` [Compound 278, 2,4-Dichloro-6-[3-(3-methyl-pyridin-2-yl)-[1,2,4]oxadiazol-5-yl]-phenol]: 3.8 µM. For the compound `Cc1cccnc1-c1noc(-c2cc(Cl)cc(Br)c2O)n1` [Compound 279, 2-Bromo-4-chloro-6-[3-(3-methyl-pyridin-2-yl)-[1,2,4]oxadiazol-5-yl]-phenol], the EC50 is 3.3 µM. For `Cc1cccnc1-c1noc(-c2cc(Br)cc(Br)c2O)n1` [Compound 280, 2,4-Dibromo-6-[3-(3-methyl-pyridin-2-yl)-[1,2,4]oxadiazol-5-yl]-phenol] the value was 7.4 µM; for `Oc1c(Cl)cc(Cl)cc1-c1nc(-c2ccccn2)no1` [Compound 281], 2.1 µM. With `COc1ccc(-c2nc(-c3ncccc3C)no2)c(O)c1OC` [Compound 282, 2,3-Dimethoxy-6-[3-(3-methyl-pyridin-2-yl)-[1,2,4]oxadiazol-5-yl]-phenol], the EC50 came out at 1.3 µM. For `COc1ccc(O)c(-c2nc(-c3ccoc3)no2)c1` [Compound 283, 2-(3-Furan-3-yl-[1,2,4]oxadiazol-5-yl)-4-methoxy-phenol] the value was 15 µM. Take `Cc1ccc(O)c(-c2nc(-c3ccoc3)no2)c1` [Compound 284, 2-(3-Furan-3-yl-[1,2,4]oxadiazol-5-yl)-4-methyl-phenol]: the EC50 is 17 µM. For `Oc1ccc2ccccc2c1-c1nc(-c2ccoc2)no1` [Compound 285] the value was 11 µM; for `COc1ccc(-c2nc(-c3ccoc3)no2)c(O)c1` [Compound 286, 2-(3-Furan-3-yl-[1,2,4]oxadiazol-5-yl)-5-methoxy-phenol], 9.7 µM; for `Oc1ccc(OC(F)(F)F)cc1-c1nc(-c2ccc(C(F)(F)F)cn2)no1` [Compound 287, 4-Trifluoromethoxy-2-[3-(5-trifluoromethyl-pyridin-2-yl)-[1,2,4]oxadiazol-5-yl]-phenol], 1.7 µM. For the compound `Cc1cccnc1-c1noc(-c2ccc(NCc3ccccc3)cc2O)n1` [Compound 288, 5-Benzylamino-2-[3-(3-methyl-pyridin-2-yl)-[1,2,4]oxadiazol-5-yl]-phenol], the EC50 was 0.8 µM. Next, `Cc1cccnc1-c1noc(-c2ccc(NC(=O)c3ccccc3)cc2O)n1` [Compound 289]: 6.1 µM; `Cc1cccnc1-c1noc(-c2cc(NC(=O)c3ccccc3)ccc2O)n1` [Compound 290, N-{4-Hydroxy-3-[3-(3-methyl-pyridin-2-yl)-[1,2,4]oxadiazol-5-yl]-phenyl}-benzamide]: 2.8 µM; `CC(=O)Nc1ccc(-c2nc(-c3ncccc3C)no2)c(O)c1` [Compound 291]: 6 µM. `Oc1ccc(Br)cc1-c1nc(-c2ncccc2C(F)(F)F)no1` [Compound 292, 4-Bromo-2-[3-(3-trifluoromethyl-pyridin-2-yl)-[1,2,4]oxadiazol-5-yl]-phenol]: the concentration for a half-maximal effect (EC50) was determined as 1.5 µM. Next, `Cc1cccnc1-c1noc(-c2cccc(C)c2O)n1` [Compound 293, 2-Methyl-6-[3-(3-methyl-pyridin-2-yl)-[1,2,4]oxadiazol-5-yl]-phenol]: 1.7 µM.

As for `CSc1ccc(O)c(-c2nc(-c3ncccc3C)no2)c1` [Compound 294, 2-[3-(3-Methyl-pyridin-2-yl)-[1,2,4]oxadiazol-5-yl]-4-methylsulfanyl-phenol], the EC50 was found to be 0.2 µM.

Take `Cc1ccc(-c2nc(-c3ncccc3C)no2)c(O)c1` [Compound 295]: the EC50 stood at 2.1 µM. Turning to `Cc1cccnc1-c1noc(-c2cc(C3OCC(C)(C)CO3)ccc2O)n1` [Compound 297, 4-(5,5-Dimethyl-[1,3]dioxan-2-yl)-2-[3-(3-methyl-pyridin-2-yl)-[1,2,4]oxadiazol-5-yl]-phenol], the EC50 was 0.43 µM. `Cc1cccnc1-c1noc(-c2cccc(NC(=O)OC(C)(C)C)c2O)n1` [Compound 298]: the EC50 is 0.62 µM. For `COc1ccc(O)c(-c2noc(-c3ccoc3)n2)c1` [Compound 299, 2-(5-Furan-3-yl-[1,2,4]oxadiazol-3-yl)-4-methoxy-phenol] the value was 21.7 µM; for `Cc1cccnc1-c1noc(-c2cccc(C(C)C)c2O)n1` [Compound 300, 2-Isopropyl-6-[3-(3-methyl-pyridin-2-yl)-[1,2,4]oxadiazol-5-yl]-phenol], 1.5 µM; for `COc1ccc(O)c(-c2noc(-c3ncccc3C)n2)c1` [Compound 301, 4-Methoxy-2-[5-(3-methyl-pyridin-2-yl)-[1,2,4]oxadiazol-3-yl]-phenol], above 32 µM. For `COc1ccc(O)c(-c2noc(-c3ccco3)n2)c1` [Compound 302, 2-(5-Furan-2-yl-[1,2,4]oxadiazol-3-yl)-4-methoxy-phenol] the value was 16 µM; for `Cc1ccccc1-c1nnc(-c2ccco2)o1` [Compound 303, 2-Furan-2-yl-5-o-tolyl-[1,3,4]oxadiazole], above 32 µM. Consider `Oc1ccc2ccccc2c1-c1nnc(-c2ccccc2)o1` [Compound 304, 1-(5-Phenyl-[1,3,4]oxadiazol-2-yl)-naphthalen-2-ol], for which the EC50 was above 32 µM. For the compound `Oc1ccc2ccccc2c1-c1nnc(-c2ccccc2F)o1` [Compound 305, 1-[5-(2-Fluoro-phenyl)-[1,3,4]oxadiazol-2-yl]-naphthalen-2-ol], the EC50 was above 32 µM. For `Oc1ccc2ccccc2c1-c1nnc(-c2ccccc2C(F)(F)F)o1` [Compound 306, 1-[5-(2-Trifluoromethyl-phenyl)-[1,3,4]oxadiazol-2-yl]-naphthalen-2-ol] the value was 26 µM.

As for `Oc1ccc2ccccc2c1-c1nnc(-c2ccco2)o1` [Compound 307, 1-(5-Furan-2-yl-[1,3,4]oxadiazol-2-yl)-naphthalen-2-ol], the EC50 was above 32 µM. `Oc1ccc2ccccc2c1-c1nnc(-c2cccs2)o1` [Compound 308, 1-(5-Thiophen-2-yl-[1,3,4]oxadiazol-2-yl)-naphthalen-2-ol]: the EC50 is 26 µM. Next, `Oc1ccc2ccccc2c1-c1nnc(-c2ncc(C(F)(F)F)cc2Cl)o1` [Compound 309, 1-[5-(3-Chloro-5-trifluoromethyl-pyridin-2-yl)-[1,3,4]oxadiazol-2-yl]-naphthalen-2-ol]: 16 µM. Next, `Oc1ccc2ccccc2c1-c1nnc(-c2c(Cl)cccc2Cl)o1` [Compound 310, 1-[5-(2,6-Dichloro-phenyl)-[1,3,4]oxadiazol-2-yl]-naphthalen-2-ol]: 4.4 µM.

The values above are taken from patent publication US20050075375A1 (priority 2003, published 2005).
